For the series the following is noted: ester bond, 18-membered ring, DCM.

Read-outs that look alike come from different tables or passages of the source.

Data on eleven compounds can be found in patent US20260078133.

For the compound `CCn1c(-c2cc(N3CCN(C(=O)OCc4ccccc4)CC3)cnc2[C@H](C)OC)c2c3cc(ccc31)N1CCO[C@@H](C[C@H](NC(=O)OC(C)(C)C)C(=O)N3N[C@H](C(=O)OCC(C)(C)C2)C2CC3C2)C1`, where the note is “from CCn1c(-c2cc(N3CCN(C(=O)OCc4ccccc4)CC3)cnc2[C@H](C)OC)c(CC(C)(C)CO)c2cc(N3CCO[C@@H](C[C@H](NC(=O)OC(C)(C)C)C(=O)N4N[C@H](C(=O)O)C5CC4C5)C3)ccc21, PyBOP/DMAP, 9.8 mM, 35.0 °C, 0.5 h”, the ring closure, isolated yield amounted to 16%. For the setting “from CCn1c(-c2cccnc2[C@H](C)OC)c(CC(C)(C)CO)c2cc(N3CCO[C@@H](C[C@H](NC(=O)OC(C)(C)C)C(=O)N4N[C@H](C(=O)O)C5CC4C5)C3)ccc21, PyBOP/DMAP, 2.6 mM, 16.0 h”, `CCn1c(-c2cccnc2[C@H](C)OC)c2c3cc(ccc31)N1CCO[C@@H](C[C@H](NC(=O)OC(C)(C)C)C(=O)N3N[C@H](C(=O)OCC(C)(C)C2)C2CC3C2)C1` showed a ring closure, isolated yield of 96.2%. In turn, `CCn1c(-c2cc(N3CCN(C(=O)OCc4ccccc4)CC3)cnc2[C@H](C)OC)c2c3cc(ccc31)-c1csc(n1)C[C@H](NC(=O)OC(C)(C)C)C(=O)N(C)NCC(=O)OCC(C)(C)C2` gave a ring closure, isolated yield (from CCn1c(-c2cc(N3CCN(C(=O)OCc4ccccc4)CC3)cnc2[C@H](C)OC)c(CC(C)(C)CO)c2cc(-c3csc(C[C@H](NC(=O)OC(C)(C)C)C(=O)N(C)NCC(=O)O)n3)ccc21, EDCI/HOBT/DIEA, 4.3 mM, 16.0 h) of 38.2%.

As to “benzyl-4-(5-((64S,4S)-4-((tert-butoxycarbonyl) amino)-11-ethyl-10,10-dimethyl-5,7-dioxo-11H-8-oxa-62,63-diaza-1 (5,3)-indola-6(2,4)-bicyclo[3.1.1]heptana-2(1,3)-benzenacycloundecaphane-12-yl)-6-((S)-1-methoxyethyl)pyridin-3-yl)piperazine-1-carboxylate”, the ring closure, isolated yield (EDCI/HOBT/DIEA, 6.0 mM) worked out at 27%. In the case of `CCn1c(-c2cc(N3CCN(C4CC4)CC3)cnc2[C@H](C)OC)c2c3cc(ccc31)-c1csc(n1)C[C@H](NC(=O)OC(C)(C)C)C(=O)N(C)NCC(=O)OCC(C)(C)C2`, where the note is “from CCn1c(-c2cc(N3CCN(C4CC4)CC3)cnc2[C@H](C)OC)c(CC(C)(C)CO)c2cc(-c3csc(C[C@H](NC(=O)OC(C)(C)C)C(=O)N(C)NCC(=O)O)n3)ccc21, PyBOP/DMAP, 5.9 mM, 0.0 °C, 1.0 h”, the ring closure, isolated yield was 27%. Turning to `CCn1c(-c2cc(N3CCN(C4CC4)CC3)cnc2[C@H](C)OC)c2c3cc(ccc31)-c1nnc(o1)C[C@H](NC(=O)OCc1ccccc1)C(=O)N1N[C@H](C(=O)OCC(C)(C)C2)C2CC1C2`, the ring closure, isolated yield (from CCn1c(-c2cc(N3CCN(C4CC4)CC3)cnc2[C@H](C)OC)c(CC(C)(C)CO)c2cc(-c3nnc(C[C@H](NC(=O)OCc4ccccc4)C(=O)N4N[C@H](C(=O)O)C5CC4C5)o3)ccc21, PyBOP/DMAP, 6.6 mM, 16.0 h, 2 steps) is 29%. Compound `CCn1c(-c2cc(N3CCN(C)CC3)cnc2[C@H](C)OC)c2c3cc(ccc31)-c1csc(n1)C[C@H](NC(=O)OC(C)(C)C)C(=O)N1N[C@H](C(=O)OCC(C)(C)C2)C2CC1C2` gave a ring closure, isolated yield (from CCn1c(-c2cc(N3CCN(C)CC3)cnc2[C@H](C)OC)c(CC(C)(C)CO)c2cc(-c3csc(C[C@H](NC(=O)OC(C)(C)C)C(=O)N4N[C@H](C(=O)O)C5CC4C5)n3)ccc21, PyBOP/DMAP, 5.7 mM, 5.0 h) of 48.8%. For the compound `CCn1c(-c2cc(N3CCN(C(=O)OCc4ccccc4)CC3)cnc2[C@H](C)OC)c2c3cc(ccc31)-c1csc(n1)C[C@H](NC(=O)OC(C)(C)C)C(=O)N1N[C@@H](C(=O)OCC(C)(C)C2)C2CC1C2`, the ring closure, isolated yield (from CCn1c(-c2cc(N3CCN(C(=O)OCc4ccccc4)CC3)cnc2[C@H](C)OC)c(CC(C)(C)CO)c2cc(-c3csc(C[C@H](NC(=O)OC(C)(C)C)C(=O)N4N[C@@H](C(=O)O)C5CC4C5)n3)ccc21, EDCI/HOBT/DIEA, 5.2 mM, 35.0 °C, 16.0 h) worked out at 49%. For the compound “tert-butyl ((1^2S,12S)-2^1-ethyl-2^2-(2-((S)-1-methoxyethyl)pyridin-3-yl)-4,4,10-trimethyl-7,11-dioxo-2^1H-6-oxa-9,10-diaza-1(4,2)-morpholina-2(5,3)-indolacyclotridecaphane-12-yl)carbamate”, under “EDCI/HOBT/DIEA, 6.5 mM”, the ring closure, isolated yield turned out to be 44%.

Regarding `CCn1c(-c2cc(N3CCN(C)CC3)cnc2[C@H](C)OC)c2c3cc(ccc31)-c1csc(n1)C[C@H](NC(=O)OC(C)(C)C)C(=O)N(C)NCC(=O)OCC(C)(C)C2`, the ring closure, isolated yield (from CCn1c(-c2cc(N3CCN(C)CC3)cnc2[C@H](C)OC)c(CC(C)(C)CO)c2cc(-c3csc(C[C@H](NC(=O)OC(C)(C)C)C(=O)N(C)NCC(=O)O)n3)ccc21, PyBOP/DMAP, 0.8 mM, 0.0 °C, 1.0 h) was 42%. In the case of `C=C[C@@H]1CCN2N[C@@H]1C(=O)OCC(C)(C)Cc1c(-c3cc(N4CCN(C(=O)OCc5ccccc5)CC4)cnc3[C@H](C)OC)n(CC)c3ccc(cc13)-c1csc(n1)C[C@H](NC(=O)OC(C)(C)C)C2=O`, under “from C=C[C@@H]1CCN(C(=O)[C@H](Cc2nc(-c3ccc4c(c3)c(CC(C)(C)CO)c(-c3cc(N5CCN(C(=O)OCc6ccccc6)CC5)cnc3[C@H](C)OC)n4CC)cs2)NC(=O)OC(C)(C)C)N[C@@H]1C(=O)O, EDCI/HOBT/DIEA, 10.0 mM, 16.0 h”, the ring closure, isolated yield stood at 36.7%.
